{"source": "patent US10675267B2", "about": "“Methods for detection and eradication of myeloid leukemia stem cells” (priority 2015, dated 2020)", "key": {"[1]": {"test_system": "AML LSC (CD34+ cells from AML primary samples)", "test": "SL/M2 stromal co-culture with colony formation (survival) and replating (self-renewal) assays, AML", "assay_type": "cell-based, human", "settings": "two weeks SL/M2 co-culture, 0.1-10 μM, versus DMSO", "experimental": "(§1) In hypothesis-driven experiments, the splicing modulatory compound 17S-FD-895 was tested to determine efficacy in altering splicing activity in cell lines, and to evaluate effects on AML LSC survival and self-renewal capacity in humanized bone marrow stromal co-cultures and in PRIMAGRAFT™ AML LSC models. Cell culture experiments were performed using 293T and sAML (MOLM-13) cell lines, and SL and M2 bone marrow stromal cell lines. Animal studies were performed using immunocompromised Rag2−/−γc−/−[20] or NOD/SCID-IL2RG mice (Jackson Laboratory, Bar Harbor, Me.). Primary AML and normal control samples were used in in vitro hematopoietic stem and progenitor assays after bone marrow stromal co-culture and treatment with splicing modulatory compounds (FD-895 or 17S-FD-895) or vehicle control (DMSO). Colony formation potential and self-renewal capacity were assessed by counting colony numbers (survival) after two weeks of growth in semi-solid (methylcellulose) media, and subsequent replating capacity (self-renewal) was assessed after transfer to fresh methylcellulose for an additional two weeks of culture. Three primary AML samples were utilized to establish PRIMAGRAFT™ models in immunocompromised mice, and mice engrafted with cells from two of these models (AML-37 and AML-08) were treated with 17S-FD-895 or vehicle (DMSO) to evaluate changes in AML LSC survival and self-renewal capacity in vivo. Data were collected by flow cytometry and qRT-PCR analysis of CD34-selected human LSC-enriched cells from engrafted mice.\n(§2) Bone marrow SL/M2 monolayers were established from freshly inactivated (irradiated) cells and then human CD34^+ cells selected from AML primary samples (n=8) and normal controls (CD34^+ cells from cord blood, CB, n=6; or aged bone marrow, n=6) were added. Survival and self-renewal of the CD34+ cells were investigated by methylcellulose-based colony and replating assays. Two SF3B1-targeted splicing modulators, FD-895 or 17S-FD-895, were added at the initiation of co-culture at concentrations ranging from 0.1 to 10 μM.\nMouse bone marrow stromal cell lines (SL and M2 mycoplasma-free authenticated cells obtained from ATCC) expressing human interleukin-3 (IL-3), stem cell factor (SCF) and granulocyte-colony stimulating factor (G-CSF), which support erythroid and myeloid cell expansion and differentiation, were maintained under standard culture conditions, as previously described. Briefly, SL cells were grown in complete medium containing DMEM (Corning), 10% FBS, 1% Glutamax, and 1% penicillin-streptomycin (Life Technologies), while M2 cells were grown in complete medium containing RPMI, 10% FBS, 1% Glutamax, and 1% penicillin-streptomycin (all from Life Technologies). Every four passages, cells were selected by addition of G418 and hygromycin to the culture media for one passage (3-4 days), to maintain human cytokine expression. All cell lines were maintained in T-25 or T-75 culture flasks and were passaged at dilutions of 1:5-1:10 every 2-4 days. Low passage aliquots of cells were thawed every two months to ensure consistency of experiments.\n(§3) As previously described (Goff et al., 2013), humanized bone marrow SL/M2 monolayers were inactivated (irradiated) and then human CD34^+ cells selected from AML primary samples and normal controls were added for two weeks of co-culture, followed by methylcellulose-based colony and replating assays. FD-895 or 17S-FD-895 were added at the initiation of co-culture, with DMSO as a vehicle control.\nMouse bone marrow stromal cell lines (SL and M2 mycoplasma-free authenticated cells obtained from ATCC) expressing human interleukin-3 (IL-3), stem cell factor (SCF) and granulocyte-colony stimulating factor (G-CSF), which support erythroid and myeloid cell expansion and differentiation (Hogge et al., 1996), were maintained under standard culture conditions, as previously described (Goff et al., 2013). […]"}, "[2]": {"test_system": "CD34+ cells from normal aged bone marrow", "test": "SL/M2 stromal co-culture with colony and replating assays, normal bone marrow", "assay_type": "cell-based, human", "settings": "normal aged bone marrow samples", "experimental": "as §1, §2, §3"}}, "note": "“Also recorded” adds a separate entry of the source.", "data": [{"smiles": "CCC(OC)C(C)C1OC1C(O)C(C)/C=C/C=C(\\C)C1OC(=O)CC(O)CCC(C)(O)C(OC(C)=O)/C=C/C1C", "note": "(stereo not shown) [FD-895, reference compound]", "values": [{"measurement": "AML LSC self-renewal (colony replating)", "setting": "[1]", "result": "dose-dependent reduction; also recorded: reduced AML LSC self-renewal"}, {"measurement": "AML LSC survival (colony formation)", "setting": "[1]", "result": "dose-dependent reduction; also recorded: reduced AML LSC survival"}, {"measurement": "erythroid colony formation and self-renewal", "setting": "[2]", "result": "not significantly changed; also recorded: no effect on erythroid colonies"}, {"measurement": "granulocyte-macrophage (myeloid) colony survival", "setting": "[2]", "result": "slight decrease; also recorded: reduces myeloid colony formation"}]}]}
